# Assay results from PMC9266914, “Broad Spectrum Functional Activity of Structurally Related Monoanionic Au(III) Bis(Dithiolene) Complexes” (International Journal of Molecular Sciences, 2022).
# Tests used:
# Cyclic voltammetry = format: physicochemical; conditions: CH2Cl2, NBu4PF6
# Text: The redox properties of the various gold(III) bis(dithiolene) and bis(diselenolene) complexes were investigated by cyclic voltammetry using the same conditions, dichloromethane solutions and NBu4PF6 as supporting electrolyte. Under these conditions, the nature of the counter-ion, Ph4P^+ or Et4N^+, had no influence on the redox properties observed, due to ion exchange with the Bu4N^+ of the supporting electrolyte. Thus, only the result of one monoanion is included in Table 1, even if the two salts were analyzed. For all the investigated monoanionic bis(dithiolene) complexes, three redox processes are observed on the cyclic voltammograms. On the anodic scan, the two oxidation waves correspond to the oxidation of the monoanionic species into the neutral and to the monocationic complex. Most of these complexes had the tendency to deposit on the electrode once oxidized and frequently a strong desorption peak was observed on the reversible scan. This phenomenon occurs essentially for the complex with an exocyclic sulfur atom, [AuSR(=S)]^−1. On the cathodic scan, an irreversible process associated with the reduction in the monoanion into the dianion occurs (Scheme 2). […] The presence of oxygen instead of sulfur makes the oxidation of the monoanionic into the neutral species easier. On the other hand, the presence of electron-withdrawing substituents such as =C(CN)2 induces an anodic shift of the oxidation potentials by 300 mV, compared with the =O derivative, leading to a monoanion which is more difficult to oxidize than the other complexes of the series. […] Indeed, the potential difference between the second and the first oxidation potentials amounts to 470 mV and 410 mV for the =O and the =C(CN)2 derivatives, respectively, while for the =S analogues this value is smaller (170 mV). […] For comparison, we also investigated the redox behavior of Auranofin using the same experimental conditions in CH2Cl2 in the presence of NBu4PF6 as a supporting electrolyte. Using these conditions, upon anodic scan only one irreversible oxidation process is observed at 1.42 V vs. SCE. Therefore, all these monoanionic gold bis(dithiolene) and bis(diselenolene) complexes are easier to oxidize than Auranofin.
# All reagents and materials from commercial sources were used without further purification. NMR spectra were recorded at room temperature using CDCl3 unless otherwise stated (Figures S7–S15). Chemical shifts are reported in ppm and ^1H NMR spectra were referenced to residual CHCl3 (7.26 ppm) and ^13C NMR spectra were referenced to CHCl3 (77.2 ppm). Mass spectra were recorded with an Agilent 6510 instrument for organics compounds and with a Thermo-Fisher Q-Exactive instrument for complexes by the Center Régional de Mesures Physiques de l’Ouest, Rennes. Cyclic voltammograms (CV)s were carried out on a 10^−3 M solution of complex in CH2Cl2-[NBu4] [PF6] 0.1 M. CVs were recorded on a Biologic SP-50 instruments at 0.1 Vs^−1 on a platinum disk electrode. Potentials were measured versus KCl Saturated Calomel Electrode (SCE). Column chromatography was performed using silica gel Merck 60 (70–260 mesh). The solvents were purified and dried by standard methods. The proligand 2-SEt(=C(CN2)), [72] and complexes [N][AuSMe(=S)], [73] [N][AuSEt(=S)], [74] [P][AuSEt(=O)], [75] [N][AuSeEt(=S)] [75] and [P][AuSPr(=S)] [76] were synthesized according to the previously reported procedure.
# [1] = tested on: A2780 ovarian cancer cells; design: method as in PMID 32391537; conditions: 48 h incubation, MTT; starred values; read-out: IC50 A2780, 48 h; cited from earlier work
structure (smiles),measurement,setting,value
"CC(=O)OC[C@H]1O[C@@H]([S-])[C@H](OC(C)=O)[C@@H](OC(C)=O)[C@@H]1OC(C)=O.CCP(CC)CC.[Au+] [Auranofin, reference compound]",irreversible oxidation process (anodic scan),Cyclic voltammetry,1.42 V vs. SCE
same,IC50,[1],0.43 ± 0.27 µM
